Reference: PubChem BioAssay AID256 (DTP/NCI, 2004)
Values joined by “and” are separate entries in the source; they are usually repeats but may differ in a detail not shown here. Equal entries are not always repeated. Inconclusive results and toxic doses are left out. The calls were made as follows: active = survival T/C of 150% or more; inactive = T/C below 125% in these data.

Test system: CD2F1 mice, L1210 leukemia ip, survival T/C
Assay: NCI In Vivo Anticancer Drug Screen. Data for tumor model L1210 Leukemia (intraperitoneal) in CD2F1 (CDF1) mice
Details: higher = longer survival
Method in brief: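 Ratio T/C, where T is the treated-group value and C the vehicle-dosed control value, from mice implanted with a transplantable tumor.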

[1] = endpoint: mean survival time, dose: 100.0 mg/kg/injection, schedule: Q01DX009 (ip), vehicle: saline
[2] = endpoint: mean survival time, dose: 200.0 mg/kg/injection, schedule: Q01DX009 (ip), vehicle: saline
[3] = endpoint: mean survival time, dose: 400.0 mg/kg/injection, schedule: Q01DX009 (ip), vehicle: saline
[4] = endpoint: mean survival time, dose: 100.0 mg/kg/injection, schedule: Q04DX003 (ip), vehicle: saline with Tween-80
[5] = endpoint: mean survival time, dose: 200.0 mg/kg/injection, schedule: Q04DX003 (ip), vehicle: saline with Tween-80
[6] = endpoint: mean survival time, dose: 25.0 mg/kg/injection, schedule: Q01DX009 (ip), vehicle: water
[7] = endpoint: mean survival time, dose: 50.0 mg/kg/injection, schedule: Q01DX009 (ip), vehicle: water
[8] = endpoint: mean survival time, dose: 100.0 mg/kg/injection, schedule: Q01DX009 (ip), vehicle: water
[9] = endpoint: mean survival time, dose: 200.0 mg/kg/injection, schedule: Q01DX009 (ip), vehicle: water

Measured: T/C

Cc1c([C@H](C)[C@@H]2NC[C@@H](C)C[C@H]2O)ccc2c1C[C@H]1[C@H]2CC=C2C[C@@H](O)CC[C@@]21C
inactive: endpoint: mean survival time, dose: 2.5 mg/kg/injection, schedule: Q01DX009 (ip), vehicle: Klucel (hydroxypropylcellulose) (HPC) 96 % of control | endpoint: mean survival time, dose: 5.0 mg/kg/injection, schedule: Q01DX009 (ip), vehicle: Klucel (hydroxypropylcellulose) (HPC) 102 % of control

CNC(=O)/C=C/C1=CN2C(=O)c3ccc(C)c(O)c3NC(OC)C2C1 (stereo unspecified)
inactive: endpoint: mean survival time, dose: 0.01 mg/kg/injection, schedule: Q01DX009 (ip), vehicle: saline 105 % of control and 108 % of control | endpoint: mean survival time, dose: 0.02 mg/kg/injection, schedule: Q01DX009 (ip), vehicle: saline 95 % of control | endpoint: mean survival time, dose: 0.03 mg/kg/injection, schedule: Q01DX009 (ip), vehicle: saline 112 % of control | endpoint: mean survival time, dose: 0.05 mg/kg/injection, schedule: Q01DX009 (ip), vehicle: saline 100 % of control and 106 % of control and 108 % of control | endpoint: mean survival time, dose: 0.1 mg/kg/injection, schedule: Q01DX009 (ip), vehicle: saline 115 % of control and 102 % of control and 106 % of control | endpoint: mean survival time, dose: 0.2 mg/kg/injection, schedule: Q01DX009 (ip), vehicle: saline 115 % of control and 100 % of control | endpoint: mean survival time, dose: 0.4 mg/kg/injection, schedule: Q01DX009 (ip), vehicle: saline 112 % of control

CC1(C)CC23C4COC(=O)C2CCC1C3CC4=O (stereo unspecified)
inactive: endpoint: mean survival time, dose: 3.12 mg/kg/injection, schedule: Q01DX009 (ip), vehicle: DMSO 95 % of control | endpoint: mean survival time, dose: 6.25 mg/kg/injection, schedule: Q01DX009 (ip), vehicle: DMSO 96 % of control and 98 % of control | endpoint: mean survival time, dose: 12.5 mg/kg/injection, schedule: Q01DX009 (ip), vehicle: DMSO 90 % of control and 94 % of control | endpoint: mean survival time, dose: 25.0 mg/kg/injection, schedule: Q01DX009 (ip), vehicle: DMSO 94 % of control and 98 % of control | endpoint: mean survival time, dose: 50.0 mg/kg/injection, schedule: Q01DX009 (ip), vehicle: DMSO 104 % of control | endpoint: mean survival time, dose: 100.0 mg/kg/injection, schedule: Q01DX009 (ip), vehicle: DMSO 93 % of control | endpoint: mean survival time, dose: 200.0 mg/kg/injection, schedule: Q01DX009 (ip), vehicle: DMSO 112 % of control

CCCN(CCC)C(=O)c1cccnc1
inactive: [1] 92 % of control | [2] 92 % of control | [3] 97 % of control

[Cl][Pt+2][Cl].[N-]=C(N)/N=C(\[NH-])N
inactive: endpoint: median survival time, dose: 12.5 mg/kg/injection, schedule: Q04DX003 (ip), vehicle: distilled water + Tween-80 104 % of control | endpoint: median survival time, dose: 25.0 mg/kg/injection, schedule: Q04DX003 (ip), vehicle: distilled water + Tween-80 101 % of control | endpoint: median survival time, dose: 50.0 mg/kg/injection, schedule: Q04DX003 (ip), vehicle: distilled water + Tween-80 101 % of control | endpoint: median survival time, dose: 100.0 mg/kg/injection, schedule: Q04DX003 (ip), vehicle: distilled water + Tween-80 108 % of control | endpoint: median survival time, dose: 200.0 mg/kg/injection, schedule: Q04DX003 (ip), vehicle: distilled water + Tween-80 108 % of control

CCCCCCCCC[n+]1ccc(C#N)cc1
inactive: endpoint: mean survival time, dose: 9.38 mg/kg/injection, schedule: Q01DX001 (ip), vehicle: other 103 % of control | endpoint: mean survival time, dose: 18.75 mg/kg/injection, schedule: Q01DX001 (ip), vehicle: other 101 % of control | endpoint: mean survival time, dose: 37.5 mg/kg/injection, schedule: Q01DX001 (ip), vehicle: other 103 % of control

c1cc2[nH]c3ccncc3c2cn1
inactive: endpoint: mean survival time, dose: 50.0 mg/kg/injection, schedule: Q01DX009 (ip), vehicle: saline sonified 98 % of control | endpoint: mean survival time, dose: 100.0 mg/kg/injection, schedule: Q01DX009 (ip), vehicle: saline sonified 101 % of control

C/C1=C/C2=CC(C)C[C@@H]2C(=O)[C@]2(C)C(=O)CC(C)(C)[C@H]2CC1=O (stereo partly specified)
inactive: endpoint: mean survival time, dose: 0.13 mg/kg/injection, schedule: Q01DX009 (ip), vehicle: Klucel (hydroxypropylcellulose) (HPC) 98 % of control | endpoint: mean survival time, dose: 0.25 mg/kg/injection, schedule: Q01DX009 (ip), vehicle: Klucel (hydroxypropylcellulose) (HPC) 95 % of control | endpoint: mean survival time, dose: 0.5 mg/kg/injection, schedule: Q01DX009 (ip), vehicle: Klucel (hydroxypropylcellulose) (HPC) 93 % of control | endpoint: mean survival time, dose: 1.0 mg/kg/injection, schedule: Q01DX009 (ip), vehicle: Klucel (hydroxypropylcellulose) (HPC) 90 % of control

CCCCCCCCCCCCCCCCOc1ccc(S(=O)(=O)NC2CCCCC2)cc1[N+](=O)[O-]
inactive: [4] 90 % of control | [5] 93 % of control | endpoint: mean survival time, dose: 400.0 mg/kg/injection, schedule: Q04DX003 (ip), vehicle: saline with Tween-80 94 % of control

CCOC(=O)C1(C(=O)O)CC2C(C)C=CC(C)C2C1 (stereo unspecified)
inactive: endpoint: mean survival time, dose: 100.0 mg/kg/injection, schedule: Q01DX009 (ip), vehicle: Klucel (hydroxypropylcellulose) (HPC) 100 % of control | endpoint: mean survival time, dose: 200.0 mg/kg/injection, schedule: Q01DX009 (ip), vehicle: Klucel (hydroxypropylcellulose) (HPC) 102 % of control | endpoint: mean survival time, dose: 400.0 mg/kg/injection, schedule: Q01DX009 (ip), vehicle: Klucel (hydroxypropylcellulose) (HPC) 96 % of control

CCNCc1cc(Nc2cc(C)nc(/N=C(\N)Nc3ccc(Cl)c(Cl)c3)n2)ccc1OC
inactive: endpoint: mean survival time, dose: 25.0 mg/kg/injection, schedule: Q01DX009 (ip), vehicle: Klucel (hydroxypropylcellulose) (HPC) 100 % of control

COc1ccc(CC(=O)Nc2ccc(OC)c(OC)c2)cc1OC
inactive: endpoint: mean survival time, dose: 12.5 mg/kg/injection, schedule: Q01DX009 (ip), vehicle: water 96 % of control | [6] 98 % of control | [7] 96 % of control | [8] 95 % of control | [9] 96 % of control

Nc1nc2c(ncn2C2CC3[O][Sn]([c]4ccccc4)([c]4ccccc4)[O]CC3O2)c(=O)[nH]1 (stereo unspecified)
inactive: endpoint: mean survival time, dose: 6.25 mg/kg/injection, schedule: Q01DX005 (ip), vehicle: distilled water + Tween-80 104 % of control | endpoint: mean survival time, dose: 12.5 mg/kg/injection, schedule: Q01DX005 (ip), vehicle: distilled water + Tween-80 93 % of control | endpoint: mean survival time, dose: 25.0 mg/kg/injection, schedule: Q01DX005 (ip), vehicle: distilled water + Tween-80 93 % of control | endpoint: mean survival time, dose: 50.0 mg/kg/injection, schedule: Q01DX005 (ip), vehicle: distilled water + Tween-80 90 % of control | endpoint: mean survival time, dose: 100.0 mg/kg/injection, schedule: Q01DX005 (ip), vehicle: distilled water + Tween-80 106 % of control

CC(C)(O)C#CC#CC(C)(C)O
inactive: endpoint: mean survival time, dose: 100.0 mg/kg/injection, schedule: Q01DX001 (ip), vehicle: saline with Tween-80 102 % of control | endpoint: mean survival time, dose: 200.0 mg/kg/injection, schedule: Q01DX001 (ip), vehicle: saline with Tween-80 96 % of control

N#C[C@H](OC1OC(COC2OC(CO)C(O)C(O)C2O)C(O)C(O)C1O)c1ccccc1 (stereo partly specified)
inactive: endpoint: mean survival time, dose: 25.0 mg/kg/injection, schedule: Q01DX009 (ip), vehicle: saline 98 % of control | [6] 96 % of control | endpoint: mean survival time, dose: 50.0 mg/kg/injection, schedule: Q01DX009 (ip), vehicle: saline 97 % of control | [7] 103 % of control | [1] 101 % of control | [8] 96 % of control | [2] 104 % of control | [9] 96 % of control | [3] 98 % of control | endpoint: mean survival time, dose: 400.0 mg/kg/injection, schedule: Q01DX009 (ip), vehicle: water 105 % of control | endpoint: mean survival time, dose: 800.0 mg/kg/injection, schedule: Q01DX009 (ip), vehicle: saline 107 % of control | endpoint: mean survival time, dose: 800.0 mg/kg/injection, schedule: Q01DX009 (ip), vehicle: water 102 % of control

CC(C)CNC(=O)c1ccc(N=NN(C)Cc2ccncc2)cc1
inactive: endpoint: mean survival time, dose: 50.0 mg/kg/injection, schedule: Q01DX009 (ip), vehicle: saline with Tween-80 104 % of control | endpoint: mean survival time, dose: 100.0 mg/kg/injection, schedule: Q01DX009 (ip), vehicle: saline with Tween-80 122 % of control | [4] 105 % of control | [5] 117 % of control

Cc1noc(C)c1CO
inactive: [1] 100 % of control | [2] 101 % of control | [3] 101 % of control
